US20100104624A1, “COMBINATION THERAPY USING PHOSPHODIESTERASE INHIBITORS” (priority 2008, published 2010)
Where a name gives a salt, the structure may show the parent alone. Read-outs that look alike come from different tables or passages of the source.

What was measured:
patient [1] = details: for headache side-effect of PDE-5 inhibitor: Example 4: patient, erectile dysfunction secondary to medications, hemicrania continua; for headache side-effect of Viagra: Viagra alone
Description: A patient with a history of migraines had difficulty sustaining an erection for long periods of time.
A patient presented with erectile dysfunction secondary to medications and hemicrania continua (a largely refractory condition consisting of a constant one-sided headache). […] They were then prescribed cafergot, a combination of ergotamine and caffeine, at a dose of 1 mg and instructed to take this with the Clalis.
A patient experienced intermittent erectile dysfunction due to stress.

patient [2] = assay: Patient case reports: alleviation of PDE-5 inhibitor headache by a co-administered agent; assay type: in vivo
[3] = Example 3: patient with history of migraines

In the case of CN1CC(=O)N2[C@H](c3ccc4c(c3)OCO4)c3[nH]c4ccccc4c3C[C@@H]2C1=O [Clalis, tadalafil], the “headache side-effect of PDE-5 inhibitor” value (patient [1]) was “exacerbated their headaches”.

With CC(C)Cc1ccc(C(C)C(=O)O)cc1 (centres unmarked) [Ibuprofen] the “effect on Viagra headache” value (patient [2]; [3]) was “had no effect on the headache”.

In the case of CNS(=O)(=O)Cc1ccc2[nH]cc(CCN(C)C)c2c1 [Imitrex, sumatriptan succinate], the “relief of Viagra headache” value (patient [2]; Example 5: Imitrex nasal spray at a dose of 25 mg) was “alleviated the headache to the point where they could enjoy the sex”.

In the case of N[C@@H](Cc1c[nH]c2ccccc12)C(=O)O [L-tryptophan], the “prevention of Viagra headache” value (patient [2]; Example 6: L-tryptophan supplements the night before sexual intercourse) was “headache-free sex”.

In the case of CN[C@@H](C)[C@@H](O)c1ccccc1 [Sudafed, pseudoephedrine hydrochloride], the “relief of Viagra headache” value (patient [2]; Example 1: one Sudafed tablet) was “only minimal relief”, the “relief of Viagra headache” value (patient [2]; Example 1: two Sudafed tablets concomitantly with the Viagra) was “headache was still present but had abated enough to where they could enjoy the experience” and the “prevention of Viagra headache” value (patient [2]; Example 2: one Sudafed tablet with the Viagra) was “did not develop a headache”. For the same molecule, the “relief of Viagra headache” value (patient [2]; Example 5: patient) was “did not relieve the headache”.

CCCc1nn(C)c2c(=O)[nH]c(-c3cc(S(=O)(=O)N4CCN(C)CC4)ccc3OCC)nc12 [Viagra, sildenafil citrate] was tested, and the “headache side-effect of Viagra” value (patient [1]; Example 1: patient, erectile dysfunction secondary to low testosterone) was “inability to use Viagra because of headaches”, the “headache side-effect of Viagra” value (patient [1]; Example 2: patient without erectile dysfunction) was “bothered by headaches” and the “headache side-effect of Viagra” value (patient [1]; [3]) was “intolerable headaches”. The “headache side-effect of PDE-5 inhibitor” value (patient [1]) was “exacerbated their headaches”, the “headache side-effect of Viagra” value (patient [1]; Example 5: patient, intermittent erectile dysfunction due to stress) was “could not tolerate the headache” and the “headache side-effect of Viagra” value (patient [1]; Example 6: patient with psychologic erectile dysfunction) was “experiencing headaches”. The “headache side-effect of Viagra” value (patient [1]; Example 7: patient) was “suffered from headaches”.

In the case of CC(=O)Nc1ccc(O)cc1 [acetaminophen], the “effect on Viagra headache” value (patient [2]; [3]) was “had no effect on the headache”.

CC(C)(C)NCC(O)c1ccc(O)c(CO)c1 (centres unmarked) [albuterol] was tested, and the “relief of Viagra headache” value (patient [2]; Example 7: two puffs of albuterol inhaler after developing a headache from the Viagra) was “headache was alleviated”.

Cn1c(=O)c2c(ncn2C)n(C)c1=O [caffeine] was tested, and the “relief of Viagra headache” value (patient [2]; Example 1: caffeine administered prior to taking the Viagra) was “did not help” and the “relief of Viagra headache” value (patient [2]; Example 5: patient) was “did not relieve the headache”.

For CN(C)CCc1c[nH]c2ccc(Cn3cncn3)cc12 [rizatriptan], the “effect on Viagra headache” value (patient [2]; Example 3: 5 mg tablet of rizatriptan with the Viagra) was “made the headache tolerable”.
